pIC50: −log10 of the molar value. Where a name gives a salt, the structure may show the parent alone.
Assays:
human factor XIa = target: T1, human factor XIa (Homo sapiens, UniProt P03951); assay: Measurement of FXIa inhibition (fluorogenic peptide substrate Boc-Glu(OBzl)-Ala-Arg-AMC); type: biochemical; conditions: factor XIa from Kordia, 15 min preincubation, 30 min at 22° C., fluorescence
T1 construct: purchased Kordia
Protocol: To determine the factor XIa inhibition of the substances according to the invention, a biochemical test system is used which utilizes the reaction of a peptidic factor XIa substrate to determine the enzymatic activity of human factor XIa. Here, factor XIa cleaves from the peptic factor XIa substrate the C-terminal aminomethylcoumarin (AMC), the fluorescence of which is measured. The determinations are carried out in microtitre plates.
Test substances are dissolved in dimethyl sulphoxide and serially diluted in dimethyl sulphoxide (3000 μM to 0.0078 μM; resulting final concentrations in the test: 50 μM to 0.00013 μM). In each case 1 μl of the diluted substance solutions are placed into the wells of white microtitre plates from Greiner (384 wells). Subsequently, the following are added successively: 20 μl of assay buffer (50 mmol/l Tris buffer pH 7.4; 100 mmol/l sodium chloride; 5 mmol/l calcium chloride; 0.1% bovine serum albumin) and 20 μl of factor XIa from Kordia (0.45 nM in assay buffer). After 15 min of incubation, the enzyme reaction is started by addition of 20 μl of the factor XIa substrate Boc-Glu(OBzl)-Ala-Arg-AMC dissolved in assay buffer (10 μM in assay buffer) from Bachem, the mixture is incubated at room temperature (22° C.) for 30 min and fluorescence is then measured (excitation: 360 nm, emission: 460 nm). The measured emissions of the test batches with test substance are compared to those of control batches without test substance (only dimethyl sulphoxide instead of test substance in dimethyl sulphoxide), and IC50 values are calculated from the concentration/activity relationships.

human and animal plasma = assay: Determination of the anticoagulatory activity: activated partial thromboplastin time (aPTT) in plasma; type: biochemical; conditions: in vitro in plasma, C.K. Prest kit, 3 min at 37° C.
Protocol: The anticoagulatory activity of the test substances is determined in vitro in human and animal plasma (for example mouse, rat, rabbit, pig and dog plasma). To this end, blood is drawn off in a mixing ratio of sodium citrate/blood of 1:9 using a 0.11 molar sodium citrate solution as receiver. Immediately after the blood has been drawn off, it is mixed thoroughly and centrifuged at about 4000 g for 15 minutes. The supernatant is pipetted off.
The activated partial thromboplastin time (aPTT) is determined in the presence of varying concentrations of test substance or the corresponding solvent using a commercial test kit (C.K. Prest from Diagnostica Stago). The test compounds are incubated with the plasma and the PTT reagent (cephalin, kaolin) at 37° C. for 3 minutes. Coagulation is then started by addition of a 25 mM aqueous calcium chloride solution, and the time when coagulation occurs is determined. The concentration of test substance which brings about a 1.5-fold extension of the aPTT is determined Activity data from this test are listed in Table B below: […]

T1 sequence (P03951 388-625 limits assumed): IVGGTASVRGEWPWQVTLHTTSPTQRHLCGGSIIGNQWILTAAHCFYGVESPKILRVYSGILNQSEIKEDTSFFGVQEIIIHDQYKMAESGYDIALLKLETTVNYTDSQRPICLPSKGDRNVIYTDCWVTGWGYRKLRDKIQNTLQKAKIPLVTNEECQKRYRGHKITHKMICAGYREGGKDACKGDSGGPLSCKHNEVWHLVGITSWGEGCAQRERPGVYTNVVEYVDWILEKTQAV
T1 sequence (P03951 19-387 partner limits assumed): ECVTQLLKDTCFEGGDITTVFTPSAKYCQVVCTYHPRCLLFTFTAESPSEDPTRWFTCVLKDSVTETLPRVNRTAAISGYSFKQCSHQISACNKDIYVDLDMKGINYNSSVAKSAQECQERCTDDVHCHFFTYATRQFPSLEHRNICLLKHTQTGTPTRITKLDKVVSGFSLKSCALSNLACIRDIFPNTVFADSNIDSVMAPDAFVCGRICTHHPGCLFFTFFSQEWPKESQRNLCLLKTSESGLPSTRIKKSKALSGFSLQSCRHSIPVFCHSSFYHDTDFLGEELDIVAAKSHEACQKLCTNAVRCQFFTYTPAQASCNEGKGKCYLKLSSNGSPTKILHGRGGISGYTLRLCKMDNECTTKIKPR

NCC1CCC(C(=O)N[C@@H](Cc2ccc(-c3cnc4[nH]ccc4c3)cc2)C(=O)Nc2ccc(-c3nn[nH]n3)cc2)CC1 (stereo partly drawn) [Example 2, N-alpha-{[trans-4-(Aminomethyl)cyclohexyl]carbonyl}-4-(1H-pyrrolo[2,3-b]pyridin-5-yl)-N-[4-(2H-tetrazol-5-yl)phenyl]-L-phenylalaninamide hydrochloride]
pIC50 (human factor XIa): 8.59

NCC1CCC(C(=O)N[C@@H](Cc2ccc(-c3cncc4ccccc34)cc2)C(=O)Nc2ccc(-c3nn[nH]n3)cc2)CC1 (stereo partly drawn) [Example 3, N-alpha-{[trans-4-(Aminomethyl)cyclohexyl]carbonyl}-4-isoquinolin-4-yl-N-[4-(2H-tetrazol-5-yl)phenyl]-L-phenylalaninamide hydrochloride]
pIC50 (human factor XIa): 8.85 | aPTT (concentration of test substance which brings about a 1.5-fold extension of the aPTT) (human and animal plasma): 0.14 µmol/L

Cn1c(=O)[nH]c2ccc(-c3ccc(C[C@H](NC(=O)C4CCC(CN)CC4)C(=O)Nc4ccc(-c5nn[nH]n5)cc4)cc3)cc21 (stereo partly drawn) [Example 4, N-alpha-{[trans-4-(Aminomethyl)cyclohexyl]carbonyl}-4-(3-methyl-2-oxo-2,3-dihydro-1H-benzimidazol-5-yl)-N-[4-(2H-tetrazol-5-yl)phenyl]-L-phenylalaninamide hydrochloride]
pIC50 (human factor XIa): 8.25 | aPTT (concentration of test substance which brings about a 1.5-fold extension of the aPTT) (human and animal plasma): 0.24 µmol/L

Cn1cc(-c2ccc(C[C@H](NC(=O)C3CCC(CN)CC3)C(=O)Nc3ccc(-c4nn[nH]n4)cc3)cc2)c(=O)[nH]c1=O (stereo partly drawn) [Example 5, N-alpha-{[trans-4-(Aminomethyl)cyclohexyl]carbonyl}-4-(1-methyl-2,4-dioxo-1,2,3,4-tetrahydropyrimidin-5-yl)-N-[4-(2H-tetrazol-5-yl)phenyl]-L-phenylalaninamide hydrochloride]
pIC50 (human factor XIa): 8.29 | aPTT (concentration of test substance which brings about a 1.5-fold extension of the aPTT) (human and animal plasma): 0.06 µmol/L

NC[C@H]1CC[C@H](C(=O)N[C@@H](Cc2ccc(-c3cccc4[nH]ncc34)cc2)C(=O)Nc2ccc(-c3nn[nH]n3)cc2)CC1 [Example 6, N-alpha-{[trans-4-(Aminomethyl)cyclohexyl]carbonyl}-4-(1H-indazol-4-yl)-N-[4-(2H-tetrazol-5-yl)phenyl]-L-phenylalaninamide hydrochloride]
pIC50 (human factor XIa): 8.05 | aPTT (concentration of test substance which brings about a 1.5-fold extension of the aPTT) (human and animal plasma): 0.41 µmol/L

Cc1nc2cc(-c3ccc(C[C@H](NC(=O)[C@H]4CC[C@H](CN)CC4)C(=O)Nc4ccc(-c5nn[nH]n5)cc4)cc3)ccc2[nH]1 [Example 7, N-alpha-{[trans-4-(Aminomethyl)cyclohexyl]carbonyl}-4-(2-methyl-1H-benzimidazol-5-yl)-N-[4-(2H-tetrazol-5-yl)phenyl]-L-phenylalaninamide hydrochloride]
pIC50 (human factor XIa): 8.34

NC[C@H]1CC[C@H](C(=O)N[C@@H](Cc2ccc(-c3cccc4[nH]nc(N)c34)cc2)C(=O)Nc2ccc(-c3nn[nH]n3)cc2)CC1 [Example 10, 4-(3-Amino-1H-indazol-4-yl)-N-alpha-{[trans-4-(aminomethyl)cyclohexyl]carbonyl}-N-[4-(2H-tetrazol-5-yl)phenyl]-L-phenylalaninamide hydrochloride]
pIC50 (human factor XIa): 8.72

Cn1cc(-c2ccc(C[C@H](NC(=O)[C@H]3CC[C@H](CN)CC3)C(=O)Nc3ccc(-c4nn[nH]n4)cc3)cc2)c(=O)n(C)c1=O [Example 11, N-alpha-{[trans-4-(Aminomethyl)cyclohexyl]carbonyl}-4-(1,3-dimethyl-2,4-dioxo-1,2,3,4-tetrahydropyrimidin-5-yl)-N-[4-(2H-tetrazol-5-yl)phenyl]-L-phenylalaninamide hydrochloride]
pIC50 (human factor XIa): 8.49

NCCn1cnc2cc(-c3ccc(C[C@H](NC(=O)C4CCC(CN)CC4)C(=O)Nc4ccc(-c5nn[nH]n5)cc4)cc3)ccc21 (stereo partly drawn) [Example 13, 4-[1-(2-Aminoethyl)-1H-benzimidazol-5-yl]-N-alpha-{[trans-4-(aminomethyl)cyclohexyl]-carbonyl]-N-[4-(2H-tetrazol-5-yl)phenyl]-L-phenylalaninamide hydrochloride]
pIC50 (human factor XIa): 8.18 | aPTT (concentration of test substance which brings about a 1.5-fold extension of the aPTT) (human and animal plasma): 0.18 µmol/L

NC[C@H]1CC[C@H](C(=O)N[C@@H](Cc2ccc(-c3c[nH]c(=O)[nH]c3=O)cc2)C(=O)Nc2ccc(-c3nn[nH]n3)cc2)CC1 [Example 14, N-alpha-{[trans-4-(Aminomethyl)cyclohexyl]carbonyl}-4-(2,4-dioxo-1,2,3,4-tetrahydropyrimidin-5-yl)-N-[4-(2H-tetrazol-5-yl)phenyl]-L-phenylalaninamide hydrochloride]
pIC50 (human factor XIa): 8.17

Cn1cnc2ccc(-c3ccc(C[C@H](NC(=O)[C@H]4CC[C@H](CN)CC4)C(=O)Nc4ccc(-c5nn[nH]n5)cc4)cc3)cc21 [Example 15, N-alpha-{[trans-4-(Aminomethyl)cyclohexyl]carbonyl}-4-(1-methyl-1H-benzimidazol-6-yl)-N-[4-(2H-tetrazol-5-yl)phenyl]-L-phenylalaninamide hydrochloride]
pIC50 (human factor XIa): 8.42

Cn1cnc2cc(-c3ccc(C[C@H](NC(=O)[C@H]4CC[C@H](CN)CC4)C(=O)Nc4ccc(-c5nn[nH]n5)cc4)cc3)ccc21 [Example 16, N-alpha-{[trans-4-(Aminomethyl)cyclohexyl]carbonyl}-4-(1-methyl-1H-benzimidazol-5-yl)-N-[4-(2H-tetrazol-5-yl)phenyl]-L-phenylalaninamide hydrochloride]
pIC50 (human factor XIa): 8.49

NC[C@H]1CC[C@H](C(=O)N[C@@H](Cc2ccc(-c3cn(Cc4ccccc4)c(=O)[nH]c3=O)cc2)C(=O)Nc2ccc(-c3nn[nH]n3)cc2)CC1 [Example 17, N-alpha-{[trans-4-(Aminomethyl)cyclohexyl]carbonyl}-4-(1-benzyl-2,4-dioxo-1,2,3,4-tetrahydropyrimidin-5-yl)-N-[4-(2H-tetrazol-5-yl)phenyl]-L-phenylalaninamide hydrochloride]
pIC50 (human factor XIa): 9.30

Cc1ccc2[nH]ncc2c1-c1ccc(C[C@H](NC(=O)[C@H]2CC[C@H](CN)CC2)C(=O)Nc2ccc(-c3nn[nH]n3)cc2)cc1 [Example 18, N-alpha-{[trans-4-(Aminomethyl)cyclohexyl]carbonyl}-4-(5-methyl-1H-indazol-4-yl)-N-[4-(2H-tetrazol-5-yl)phenyl]-L-phenylalaninamide hydrochloride]
pIC50 (human factor XIa): 8.60

Cc1nc2c(cc1-c1ccc(C[C@H](NC(=O)[C@H]3CC[C@H](CN)CC3)C(=O)Nc3ccc4[nH]c(=O)[nH]c4c3)cc1)NCCN2 [Example 28, N-alpha-{[trans-4-(Aminomethyl)cyclohexyl]carbonyl}-4-(6-methyl-1,2,3,4-tetrahydropyrido[2,3-b]pyrazin-7-yl)-N-(2-oxo-2,3-dihydro-1H-benzimidazol-5-yl)-L-phenylalaninamide hydrochloride]
pIC50 (human factor XIa): 7.43 | aPTT (concentration of test substance which brings about a 1.5-fold extension of the aPTT) (human and animal plasma): 1.42 µmol/L

NC[C@H]1CC[C@H](C(=O)N[C@@H](Cc2ccc(-c3ccc4c(c3)CNC4=O)cc2)C(=O)Nc2ccc(-c3nc(C(F)(F)C(F)(F)C(=O)O)n[nH]3)cc2)CC1 [Example 29, 3-[5-(4-{[N-{[trans-4-(Aminomethyl)cyclohexyl]carbonyl}-4-(1-oxo-2,3-dihydro-1H-isoindol-5-yl)-L-phenylalanyl}amino}phenyl)-1H-1,2,4-triazol-3-yl]-2,2,3,3-tetrafluoropropanoic acid hydrochloride]
pIC50 (human factor XIa): 8.41 | aPTT (concentration of test substance which brings about a 1.5-fold extension of the aPTT) (human and animal plasma): 0.28 µmol/L

Source: US20160280688A1, “SUBSTITUTED PHENYLALANINE DERIVATIVES” (BAYER PHARMA AKTIENGESELLSCHAFT, priority 2013, published 2016)
